Results reported in patent US11697648B2, “Fused pyrimidine pyridinone compounds as JAK inhibitors” (THERAVANCE BIOPHARMA R&D IP, LLC, priority 2019, dated 2023).

Columns and labels:
JAK1 = JAK1 (Homo sapiens (Human), UniProt P23458); assay: Biochemical JAK1 kinase assay (LanthaScreen)
In short: (§1)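 GST-JAK + GFP-STAT1 peptide, HEPES pH 7.5/MgCl2/EGTA/Brij-35 buffer; cpd preincubation 1 h RT; ATP start, 1 h RT; stop with 10 mM EDTA + 2 nM Tb-anti-pSTAT1; TR-FRET 520/495. 4-parameter IC50 → pKi (Cheng-Prusoff).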

JAK2 = JAK2 (Homo sapiens (Human), UniProt O60674); assay: Biochemical JAK2 kinase assay (LanthaScreen)
In short: as §1

JAK3 = JAK3 (Homo sapiens (Human), UniProt P52333); assay: Biochemical JAK3 kinase assay (LanthaScreen); conditions: for JAK3 (pKi)-JAK1 (pKi): selectivity JAK3 over JAK1, difference of pKi
In short: as §1

Tyk2 = Tyk2 (Homo sapiens (Human), UniProt P29597); assay: Biochemical Tyk2 kinase assay (LanthaScreen)
In short: as §1

[1] = tested on: IL-2 stimulated STAT5 phosphorylation in Tall-1 human T cell line (JAK3); assay: Cellular JAK3 potency assay: inhibition of IL-2 stimulated pSTAT5 in Tall-1 T cells; format: cell-based; conditions: IL-2 stimulated pSTAT5, Tall-1 T cells
In short: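 Tall-1 cells, 45,000 per well, preincubated 1 hour with compound at 37 °C, then stimulated 30 minutes with IL-2 at 300 ng/ml final. pSTAT5 (Tyr694/699) in lysates quantified by AlphaLISA SureFire Ultra. pIC50 derived from inhibition curves, given as mean with SD.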

Caco-2 cell monolayers = assay: Caco-2 permeation assay; format: in vitro ADME; conditions: 5 μM, A-B direction, with Verapamil (25 μM)
In short: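 Compounds tested at 5 μM in duplicate across Caco-2 monolayers, apical-to-basolateral, with 25 μM verapamil to block P-gp, at 37° C., 5% CO2. Apical and basal samples taken at 0 and 120 min, analysed by LC-MS/MS; Papp (cm/sec) calculated as dQ/(dt×Area×concentration).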

JAK3, sequence (P52333 whole entry): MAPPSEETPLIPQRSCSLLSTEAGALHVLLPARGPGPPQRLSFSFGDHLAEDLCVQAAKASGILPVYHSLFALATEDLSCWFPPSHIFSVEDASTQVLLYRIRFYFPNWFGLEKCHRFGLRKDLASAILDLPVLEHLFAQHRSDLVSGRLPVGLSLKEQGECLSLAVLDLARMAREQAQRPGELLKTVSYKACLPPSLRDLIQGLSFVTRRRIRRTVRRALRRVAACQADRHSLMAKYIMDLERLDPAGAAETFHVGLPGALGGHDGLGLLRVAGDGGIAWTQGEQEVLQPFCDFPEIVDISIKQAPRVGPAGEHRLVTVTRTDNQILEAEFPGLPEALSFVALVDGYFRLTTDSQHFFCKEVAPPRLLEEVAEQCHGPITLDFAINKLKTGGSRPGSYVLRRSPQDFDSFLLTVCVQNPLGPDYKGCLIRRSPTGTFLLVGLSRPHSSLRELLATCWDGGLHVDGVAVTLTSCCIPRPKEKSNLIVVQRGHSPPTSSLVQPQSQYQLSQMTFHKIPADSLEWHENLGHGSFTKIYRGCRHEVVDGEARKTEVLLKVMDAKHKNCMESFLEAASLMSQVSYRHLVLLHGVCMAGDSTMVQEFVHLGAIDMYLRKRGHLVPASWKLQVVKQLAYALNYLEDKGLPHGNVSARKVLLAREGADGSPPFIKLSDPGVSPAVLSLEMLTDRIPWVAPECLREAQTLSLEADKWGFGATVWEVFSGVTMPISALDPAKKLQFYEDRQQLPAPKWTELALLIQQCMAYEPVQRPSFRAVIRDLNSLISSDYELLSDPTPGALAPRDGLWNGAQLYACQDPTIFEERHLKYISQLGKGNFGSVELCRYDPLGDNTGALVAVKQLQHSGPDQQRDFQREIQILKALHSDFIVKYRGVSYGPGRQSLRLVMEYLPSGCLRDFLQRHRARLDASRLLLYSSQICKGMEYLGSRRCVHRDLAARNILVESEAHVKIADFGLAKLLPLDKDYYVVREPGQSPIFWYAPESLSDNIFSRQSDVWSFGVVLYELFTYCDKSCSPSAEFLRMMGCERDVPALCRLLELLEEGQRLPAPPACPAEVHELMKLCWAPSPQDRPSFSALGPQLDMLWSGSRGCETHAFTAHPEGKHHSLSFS
JAK1, sequence (P23458 whole entry): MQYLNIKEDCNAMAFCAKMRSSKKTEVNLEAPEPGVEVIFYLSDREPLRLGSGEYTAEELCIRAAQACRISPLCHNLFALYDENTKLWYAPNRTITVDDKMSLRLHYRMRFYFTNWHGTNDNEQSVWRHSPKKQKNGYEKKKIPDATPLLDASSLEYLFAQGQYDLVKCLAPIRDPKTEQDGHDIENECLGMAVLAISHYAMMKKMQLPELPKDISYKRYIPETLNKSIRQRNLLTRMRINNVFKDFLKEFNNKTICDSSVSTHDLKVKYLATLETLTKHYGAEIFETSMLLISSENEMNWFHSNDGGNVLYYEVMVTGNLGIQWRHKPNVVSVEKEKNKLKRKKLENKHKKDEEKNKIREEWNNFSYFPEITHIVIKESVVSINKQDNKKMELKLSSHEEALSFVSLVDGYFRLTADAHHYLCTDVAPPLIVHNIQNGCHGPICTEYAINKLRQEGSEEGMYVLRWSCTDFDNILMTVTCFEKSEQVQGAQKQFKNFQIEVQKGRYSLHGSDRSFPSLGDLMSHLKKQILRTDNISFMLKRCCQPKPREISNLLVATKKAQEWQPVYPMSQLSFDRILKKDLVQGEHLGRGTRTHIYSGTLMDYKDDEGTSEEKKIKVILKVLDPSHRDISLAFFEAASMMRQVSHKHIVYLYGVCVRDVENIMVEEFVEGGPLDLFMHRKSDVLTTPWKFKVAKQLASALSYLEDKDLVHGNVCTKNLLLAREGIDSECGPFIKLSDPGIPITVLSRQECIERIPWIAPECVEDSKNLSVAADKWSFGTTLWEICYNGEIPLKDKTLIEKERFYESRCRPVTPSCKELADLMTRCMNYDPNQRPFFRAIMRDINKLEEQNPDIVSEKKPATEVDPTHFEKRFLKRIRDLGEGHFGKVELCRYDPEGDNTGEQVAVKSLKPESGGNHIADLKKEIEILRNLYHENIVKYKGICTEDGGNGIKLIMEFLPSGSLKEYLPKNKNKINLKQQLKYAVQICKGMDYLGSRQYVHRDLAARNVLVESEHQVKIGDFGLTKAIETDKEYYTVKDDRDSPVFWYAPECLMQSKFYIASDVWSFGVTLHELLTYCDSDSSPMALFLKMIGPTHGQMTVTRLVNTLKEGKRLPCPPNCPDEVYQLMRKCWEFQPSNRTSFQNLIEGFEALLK
JAK2, sequence (O60674 whole entry): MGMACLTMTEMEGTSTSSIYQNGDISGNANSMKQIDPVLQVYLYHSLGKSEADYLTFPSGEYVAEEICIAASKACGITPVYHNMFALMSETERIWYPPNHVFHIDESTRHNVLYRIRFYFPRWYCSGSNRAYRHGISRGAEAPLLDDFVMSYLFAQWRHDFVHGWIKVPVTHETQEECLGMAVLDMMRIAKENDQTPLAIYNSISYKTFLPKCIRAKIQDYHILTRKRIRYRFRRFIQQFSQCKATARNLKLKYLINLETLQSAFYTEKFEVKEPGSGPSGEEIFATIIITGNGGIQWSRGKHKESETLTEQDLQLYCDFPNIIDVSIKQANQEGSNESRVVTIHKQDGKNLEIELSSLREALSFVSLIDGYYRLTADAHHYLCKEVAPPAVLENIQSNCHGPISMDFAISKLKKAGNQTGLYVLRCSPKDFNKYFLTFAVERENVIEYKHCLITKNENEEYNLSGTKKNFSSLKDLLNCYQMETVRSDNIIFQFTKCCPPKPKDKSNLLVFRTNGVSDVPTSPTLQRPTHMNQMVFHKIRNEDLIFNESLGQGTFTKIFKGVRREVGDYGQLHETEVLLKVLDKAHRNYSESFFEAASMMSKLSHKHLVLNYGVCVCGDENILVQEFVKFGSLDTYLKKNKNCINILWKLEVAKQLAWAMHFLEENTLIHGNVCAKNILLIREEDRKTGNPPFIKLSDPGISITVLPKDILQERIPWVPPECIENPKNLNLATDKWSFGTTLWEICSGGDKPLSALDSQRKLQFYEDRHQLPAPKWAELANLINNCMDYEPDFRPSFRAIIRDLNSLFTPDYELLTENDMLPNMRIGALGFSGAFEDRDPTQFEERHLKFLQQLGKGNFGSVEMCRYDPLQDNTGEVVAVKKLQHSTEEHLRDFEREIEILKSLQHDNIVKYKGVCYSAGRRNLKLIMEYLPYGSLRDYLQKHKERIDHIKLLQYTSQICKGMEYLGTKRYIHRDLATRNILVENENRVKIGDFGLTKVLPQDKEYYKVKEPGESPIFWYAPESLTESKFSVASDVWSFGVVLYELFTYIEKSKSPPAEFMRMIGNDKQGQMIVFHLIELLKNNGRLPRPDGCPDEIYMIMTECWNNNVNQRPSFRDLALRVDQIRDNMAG
Tyk2, sequence (P29597 whole entry): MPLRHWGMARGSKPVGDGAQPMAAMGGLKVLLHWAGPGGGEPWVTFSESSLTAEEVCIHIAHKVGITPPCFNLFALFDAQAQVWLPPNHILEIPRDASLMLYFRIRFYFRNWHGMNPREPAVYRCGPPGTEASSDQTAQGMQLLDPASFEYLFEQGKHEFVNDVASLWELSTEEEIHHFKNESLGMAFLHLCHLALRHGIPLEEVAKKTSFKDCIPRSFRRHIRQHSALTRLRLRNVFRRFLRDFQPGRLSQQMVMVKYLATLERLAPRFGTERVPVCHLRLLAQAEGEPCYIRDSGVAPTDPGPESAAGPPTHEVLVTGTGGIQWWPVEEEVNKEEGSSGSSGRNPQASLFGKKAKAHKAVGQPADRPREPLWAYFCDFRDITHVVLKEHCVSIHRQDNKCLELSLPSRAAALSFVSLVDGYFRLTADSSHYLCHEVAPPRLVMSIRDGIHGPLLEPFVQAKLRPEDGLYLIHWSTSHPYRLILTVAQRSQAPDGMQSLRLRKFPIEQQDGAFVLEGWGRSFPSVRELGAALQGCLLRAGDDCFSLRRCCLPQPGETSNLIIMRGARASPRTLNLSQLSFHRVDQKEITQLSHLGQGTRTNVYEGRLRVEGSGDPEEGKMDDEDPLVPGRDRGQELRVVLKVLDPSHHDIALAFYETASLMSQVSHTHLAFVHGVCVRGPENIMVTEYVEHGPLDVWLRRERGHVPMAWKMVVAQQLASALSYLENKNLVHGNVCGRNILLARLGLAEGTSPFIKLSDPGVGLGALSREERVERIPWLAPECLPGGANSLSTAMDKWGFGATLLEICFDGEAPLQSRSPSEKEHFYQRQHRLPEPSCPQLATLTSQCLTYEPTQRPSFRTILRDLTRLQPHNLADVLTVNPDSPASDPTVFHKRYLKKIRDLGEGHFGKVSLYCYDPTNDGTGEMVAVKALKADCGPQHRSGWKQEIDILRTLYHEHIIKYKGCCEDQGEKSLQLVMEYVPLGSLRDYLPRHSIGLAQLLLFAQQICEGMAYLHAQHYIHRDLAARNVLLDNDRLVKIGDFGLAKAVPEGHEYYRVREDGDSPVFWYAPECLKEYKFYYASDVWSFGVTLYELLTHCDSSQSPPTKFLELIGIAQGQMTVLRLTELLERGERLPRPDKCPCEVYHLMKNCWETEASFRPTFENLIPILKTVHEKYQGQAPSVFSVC

C=CC(=O)N1CC(CCn2c(=O)ccc3cnc(Nc4ccc(N5CCN(C(=O)CC[S+](C)[O-])CC5)cc4)nc32)C1 (centres unmarked) [Example 139]
JAK 1 (pKi) (JAK1): E (E represents a pKi value of 7 or below (Ki of 100 nM or above)) | JAK 2 (pKi) (JAK2): E (E represents a pKi value of 7 or below (Ki of 100 nM or above)) | JAK 3 (pKi) (JAK3): A (A represents a pKi value≥10 (Ki≤0.1 nM)) | JAK3 (pKi)-JAK1 (pKi) (JAK3): A (A represents a value of 3 or above) | Tyk 2 (pKi) (Tyk2): E (E represents a pKi value of 7 or below (Ki of 100 nM or above)) | Tall-1 (pIC50) [1]: C (C represents a pIC50 value between 6 and 6.7 (IC50 between 1 μM and 200 nM)) | Caco Kp (Caco-2 cell monolayers): A (A represents a value below 5×10^−6 cm/sec)

C=CC(=O)N1CC(CCn2c(=O)ccc3cnc(Nc4ccc(N5CCN(C(=O)CCS(C)(=O)=O)CC5)cc4)nc32)C1 [Example 140]
JAK 1 (pKi) (JAK1): E (E represents a pKi value of 7 or below (Ki of 100 nM or above)) | JAK 2 (pKi) (JAK2): E (E represents a pKi value of 7 or below (Ki of 100 nM or above)) | JAK 3 (pKi) (JAK3): A (A represents a pKi value≥10 (Ki≤0.1 nM)) | JAK3 (pKi)-JAK1 (pKi) (JAK3): A (A represents a value of 3 or above) | Tyk 2 (pKi) (Tyk2): E (E represents a pKi value of 7 or below (Ki of 100 nM or above)) | Tall-1 (pIC50) [1]: C (C represents a pIC50 value between 6 and 6.7 (IC50 between 1 μM and 200 nM)) | Caco Kp (Caco-2 cell monolayers): A (A represents a value below 5×10^−6 cm/sec)

C=CC(=O)N1CC(CCn2c(=O)ccc3cnc(Nc4ccc(N5CCN(C)CC5)cc4F)nc32)C1 [Example 141]
JAK 1 (pKi) (JAK1): E (E represents a pKi value of 7 or below (Ki of 100 nM or above)) | JAK 2 (pKi) (JAK2): E (E represents a pKi value of 7 or below (Ki of 100 nM or above)) | JAK 3 (pKi) (JAK3): B (B represents pKi value between 9 and 10 (Ki between 1 nM and 0.1 nM)) | JAK3 (pKi)-JAK1 (pKi) (JAK3): A (A represents a value of 3 or above) | Tyk 2 (pKi) (Tyk2): E (E represents a pKi value of 7 or below (Ki of 100 nM or above)) | Tall-1 (pIC50) [1]: B (B represents a pC50 value between 6.7 (included) and 7.5 (IC50 between 200 nM and 32 nM)) | Caco Kp (Caco-2 cell monolayers): C (C represents a value between 10×10^−6 and 30×10^−6 cm/sec)

C=CC(=O)N1CC(CCn2c(=O)ccc3cnc(Nc4ccc(N5CCC(C)CC5)cc4)nc32)C1 [Example 142]
JAK 1 (pKi) (JAK1): E (E represents a pKi value of 7 or below (Ki of 100 nM or above)) | JAK 2 (pKi) (JAK2): E (E represents a pKi value of 7 or below (Ki of 100 nM or above)) | JAK 3 (pKi) (JAK3): A (A represents a pKi value≥10 (Ki≤0.1 nM)) | JAK3 (pKi)-JAK1 (pKi) (JAK3): A (A represents a value of 3 or above) | Tyk 2 (pKi) (Tyk2): E (E represents a pKi value of 7 or below (Ki of 100 nM or above)) | Tall-1 (pIC50) [1]: B (B represents a pC50 value between 6.7 (included) and 7.5 (IC50 between 200 nM and 32 nM)) | Caco Kp (Caco-2 cell monolayers): C (C represents a value between 10×10^−6 and 30×10^−6 cm/sec)

C=CC(=O)N1CC(CCn2c(=O)ccc3cnc(Nc4ccc(N5CCCCC5)cc4)nc32)C1 [Example 143]
JAK 1 (pKi) (JAK1): E (E represents a pKi value of 7 or below (Ki of 100 nM or above)) | JAK 2 (pKi) (JAK2): E (E represents a pKi value of 7 or below (Ki of 100 nM or above)) | JAK 3 (pKi) (JAK3): A (A represents a pKi value≥10 (Ki≤0.1 nM)) | JAK3 (pKi)-JAK1 (pKi) (JAK3): A (A represents a value of 3 or above) | Tyk 2 (pKi) (Tyk2): E (E represents a pKi value of 7 or below (Ki of 100 nM or above)) | Tall-1 (pIC50) [1]: B (B represents a pC50 value between 6.7 (included) and 7.5 (IC50 between 200 nM and 32 nM)) | Caco Kp (Caco-2 cell monolayers): C (C represents a value between 10×10^−6 and 30×10^−6 cm/sec)

C=CC(=O)N1CCN(CCn2c(=O)ccc3cnc(Nc4ccc(N5CCN(C(=O)OC)CC5)cc4)nc32)CC1 [Example 145]
JAK 1 (pKi) (JAK1): E (E represents a pKi value of 7 or below (Ki of 100 nM or above)) | JAK 2 (pKi) (JAK2): E (E represents a pKi value of 7 or below (Ki of 100 nM or above)) | JAK 3 (pKi) (JAK3): B (B represents pKi value between 9 and 10 (Ki between 1 nM and 0.1 nM)) | JAK3 (pKi)-JAK1 (pKi) (JAK3): A (A represents a value of 3 or above) | Tyk 2 (pKi) (Tyk2): E (E represents a pKi value of 7 or below (Ki of 100 nM or above)) | Tall-1 (pIC50) [1]: B (B represents a pC50 value between 6.7 (included) and 7.5 (IC50 between 200 nM and 32 nM)) | Caco Kp (Caco-2 cell monolayers): B (B represents a value between 5×10^−6 and 10×10^−6 cm/sec)

C=CC(=O)N1CC(CCn2c(=O)ccc3cnc(Nc4ccc(N5CCN(C(=O)CS(C)(=O)=O)CC5)cc4)nc32)C1 [Example 151]
JAK 1 (pKi) (JAK1): E (E represents a pKi value of 7 or below (Ki of 100 nM or above)) | JAK 2 (pKi) (JAK2): E (E represents a pKi value of 7 or below (Ki of 100 nM or above)) | JAK 3 (pKi) (JAK3): B (B represents pKi value between 9 and 10 (Ki between 1 nM and 0.1 nM)) | JAK3 (pKi)-JAK1 (pKi) (JAK3): A (A represents a value of 3 or above) | Tyk 2 (pKi) (Tyk2): E (E represents a pKi value of 7 or below (Ki of 100 nM or above)) | Tall-1 (pIC50) [1]: C (C represents a pIC50 value between 6 and 6.7 (IC50 between 1 μM and 200 nM)) | Caco Kp (Caco-2 cell monolayers): A (A represents a value below 5×10^−6 cm/sec)

C=CC(=O)N1CC(CCn2c(=O)ccc3cnc(Nc4ccc(N5CCC(F)(F)CC5)cc4)nc32)C1 [Example 157]
JAK 1 (pKi) (JAK1): E (E represents a pKi value of 7 or below (Ki of 100 nM or above)) | JAK 2 (pKi) (JAK2): E (E represents a pKi value of 7 or below (Ki of 100 nM or above)) | JAK 3 (pKi) (JAK3): A (A represents a pKi value≥10 (Ki≤0.1 nM)) | JAK3 (pKi)-JAK1 (pKi) (JAK3): A (A represents a value of 3 or above) | Tyk 2 (pKi) (Tyk2): E (E represents a pKi value of 7 or below (Ki of 100 nM or above)) | Tall-1 (pIC50) [1]: B (B represents a pC50 value between 6.7 (included) and 7.5 (IC50 between 200 nM and 32 nM)) | Caco Kp (Caco-2 cell monolayers): C (C represents a value between 10×10^−6 and 30×10^−6 cm/sec)

C=CC(=O)N1CC(CCn2c(=O)ccc3cnc(Nc4ccc(N5CCN(C)[C@H](C)C5)cc4)nc32)C1 [Example 162]
JAK 1 (pKi) (JAK1): E (E represents a pKi value of 7 or below (Ki of 100 nM or above)) | JAK 2 (pKi) (JAK2): E (E represents a pKi value of 7 or below (Ki of 100 nM or above)) | JAK 3 (pKi) (JAK3): A (A represents a pKi value≥10 (Ki≤0.1 nM)) | JAK3 (pKi)-JAK1 (pKi) (JAK3): A (A represents a value of 3 or above) | Tyk 2 (pKi) (Tyk2): E (E represents a pKi value of 7 or below (Ki of 100 nM or above)) | Tall-1 (pIC50) [1]: A (A represents a pIC50 value≥7.5 (IC50≤32 nM)) | Caco Kp (Caco-2 cell monolayers): C (C represents a value between 10×10^−6 and 30×10^−6 cm/sec)

C=CC(=O)N1CC(CCn2c(=O)ccc3cnc(Nc4ccc(N5CCN(C(C)=O)[C@@H](C)C5)cc4)nc32)C1 [Example 167]
JAK 1 (pKi) (JAK1): E (E represents a pKi value of 7 or below (Ki of 100 nM or above)) | JAK 2 (pKi) (JAK2): E (E represents a pKi value of 7 or below (Ki of 100 nM or above)) | JAK 3 (pKi) (JAK3): A (A represents a pKi value≥10 (Ki≤0.1 nM)) | JAK3 (pKi)-JAK1 (pKi) (JAK3): A (A represents a value of 3 or above) | Tyk 2 (pKi) (Tyk2): E (E represents a pKi value of 7 or below (Ki of 100 nM or above)) | Tall-1 (pIC50) [1]: B (B represents a pC50 value between 6.7 (included) and 7.5 (IC50 between 200 nM and 32 nM)) | Caco Kp (Caco-2 cell monolayers): A (A represents a value below 5×10^−6 cm/sec)

C=CC(=O)N1CCN(CCn2c(=O)ccc3cnc(Nc4ccc(N5CCN(S(=O)(=O)CCOC)CC5)cc4)nc32)[C@@H](C)C1 [Example 170]
JAK 1 (pKi) (JAK1): E (E represents a pKi value of 7 or below (Ki of 100 nM or above)) | JAK 2 (pKi) (JAK2): E (E represents a pKi value of 7 or below (Ki of 100 nM or above)) | JAK 3 (pKi) (JAK3): A (A represents a pKi value≥10 (Ki≤0.1 nM)) | JAK3 (pKi)-JAK1 (pKi) (JAK3): A (A represents a value of 3 or above) | Tyk 2 (pKi) (Tyk2): E (E represents a pKi value of 7 or below (Ki of 100 nM or above)) | Tall-1 (pIC50) [1]: A (A represents a pIC50 value≥7.5 (IC50≤32 nM)) | Caco Kp (Caco-2 cell monolayers): B (B represents a value between 5×10^−6 and 10×10^−6 cm/sec)
